In USRE44768E1, “Rapamycin hydroxyesters” (Wyeth LLC, priority 1994, dated 2014):
“And” between values parts separate entries of the source, which are not always exact repeats. Identical values can stand only once. Like-named read-outs stand apart in the source and are kept apart here.

Experiments:
[1] = test system: cells from the thymus of normal BALB/c mice; assay: comitogen-induced thymocyte proliferation procedure (LAF); settings: for LAF ratio: ratio compared with rapamycin, greater than 1 = inhibited thymocyte proliferation to a greater extent than rapamycin; for IC50: read-out: LAF IC50
Description: Cells are cultured with and without various concentrations of rapamycin, cyclosporin A, or test compound. Cells are harvested and incorporated radio-activity is determined. Inhibition of lymphoproliferation is assessed as percent change in counts per minute from nondrug treated controls. For each compound evaluated, rapamycin was also evaluated for the purpose of comparison. An IC50 was obtained for each test compound as well as for rapamycin. […] The results obtained are provided as an IC50 and as the percent inhibition of T-cell proliferation at 0.1 μM. […] A positive ratio indicates immunosuppressive activity.

[2] = test system: adjuvant arthritis (uninjected hind paw, T-cell mediated inflammation); assay: adjuvant arthritis standard pharmacological test procedure; assay type: in vivo, male inbread Wistar Lewis rats; settings: uninjected paw at day 16 versus control; oral dose of 5 mg/kg
Description: The adjuvant arthritis standard pharmacological test procedure measures the ability of test compounds to prevent immune mediated inflammation and inhibit or treat rheumatoid arthritis. The following briefly describes the test procedure used. A group of rats (male inbread Wistar Lewis rats) are pre-treated with the compound to be tested (1 h prior to antigen) and then injected with Freud's Complete Adjuvant (FCA) in the right hind paw to induce arthritis. The rats are then orally dosed on a Monday, Wednesday, Friday schedule from day 0-14 for […]. Both hind paws are measured on days 16, 23, and 30. The difference in paw volume (mL) from day 16 to day 0 is determined and a percent change from control is obtained. […] The right hind paw inflammation, on the other hand, is caused by non-specific inflammation. Compounds were tested at a dose of 5 mg/kg.

[3] = test system: pinch skin graft from male BALB/c donors transplanted to male C3H(H-2K) recipients; assay: pinch skin graft survival test procedure; assay type: in vivo; settings: mean graft survival time ± S.D., dose of 4 mg/kg
Description: Representative compounds of this invention were also evaluated in an in vivo test procedure designed to determine the survival time of pinch skin graft from male BALB/c donors transplanted to male C3H(H-2K) recipients. The method is adapted from Billingham R. E. and Medawar P. B., J. Exp. Biol. 28:385-402, (1951). Briefly, as pinch skin graft from the donor was grafted on the dorsum of the recipient as a allograft, and an isograft was used as control in the same region. The recipients were treated with either varying concentrations of test compounds intraperitoneally or orally. Rapamycin was used as a test control. Untreated recipients serve as rejection control. The graft was monitored daily and observations were recorded until the graft became dry and formed a blackened scab. This was considered as the rejection day. The mean graft survival time (number of days±S.D.) of the drug treatment group was compared with the control group. […] Results are expressed as the mean survival time in days. Untreated (control) pinch skin grafts are usually rejected within 6-7 days. Compounds were tested using a dose of 4 mg/kg.

[4] = thymocytes cultured 72 hours with PHA and IL-1, tritiated thymidine incorporation

Compound | LAF ratio [1] | IC50 [1, 4] [nM] | further results
CO[C@H]1C[C@@H]2CC[C@@H](C)[C@@](O)(O2)C(=O)C(=O)N2CCCC[C@H]2C(=O)O[C@H]([C@H](C)C[C@@H]2CC[C@@H](OC(=O)CO)[C@H](OC)C2)CC(=O)[C@H](C)/C=C(\C)[C@@H](O)[C@@H](OC)C(=O)[C@H](C)C[C@H](C)/C=C/C=C/C=C/1C [Example 2, Rapamycin 42-ester with hydroxyacetic acid] | 0.83 | 1.8 | Percent change in adjuvant arthritis versus control [2]: −88%
COC1CC2CCC(C)C(O)(O2)C(=O)C(=O)N2CCCCC2C(=O)OC(C(C)CC2CCC(OC(=O)C(C)(C)COC3CCCCO3)C(OC)C2)CC(=O)C(C)C=C(C)C(O)C(OC)C(=O)C(C)CC(C)C=CC=CC=C1C (centres unmarked) [Example 3, Rapamycin 42-ester with 2,2-dimethyl-3-(tetrahydropyran-2-yloxy)propionic acid] | 0.34 | 7.1 | 
CO[C@H]1C[C@@H]2CC[C@@H](C)[C@@](O)(O2)C(=O)C(=O)N2CCCC[C@H]2C(=O)O[C@H]([C@H](C)C[C@@H]2CC[C@@H](OC(=O)C(C)(C)CO)[C@H](OC)C2)CC(=O)[C@H](C)/C=C(\C)[C@@H](O)[C@@H](OC)C(=O)[C@H](C)C[C@H](C)/C=C/C=C/C=C/1C [Example 4, Rapamycin 42-ester with 3-hydroxy-2,2-dimethylpropionic acid] | 1.25 | 0.8 | Skin graft survival time [3]: 10.7 ± 0.5 days
COC1CC2CCC(C)C(O)(O2)C(=O)C(=O)N2CCCCC2C(=O)OC(C(C)CC2CCC(OC(=O)C3COC(C)(C)O3)C(OC)C2)CC(=O)C(C)C=C(C)C(O)C(OC)C(=O)C(C)CC(C)C=CC=CC=C1C (centres unmarked) [Example 5, Rapamycin 42-ester with 2,2-dimethyl[1,3]dioxalane-4-carboxylic acid] | 0.74 | 1.2 | 
COC1CC2CCC(C)C(O)(O2)C(=O)C(=O)N2CCCCC2C(=O)OC(C(C)CC2CCC(OC(=O)C3COC(C)(C)O3)C(OC)C2)CC(=O)C(C)C=C(C)C(OC(=O)C2COC(C)(C)O2)C(OC)C(=O)C(C)CC(C)C=CC=CC=C1C (centres unmarked) [Example 6, Rapamycin 31,42-diester with 2,2-dimethyl[1,3]dioxalane-4-carboxylic acid] | 0.5 | 1.3 | 
COC1CC2CCC(C)C(O)(O2)C(=O)C(=O)N2CCCCC2C(=O)OC(C(C)CC2CCC(OC(=O)C3COC(C)(C)OC3)C(OC)C2)CC(=O)C(C)C=C(C)C(O)C(OC)C(=O)C(C)CC(C)C=CC=CC=C1C (centres unmarked) [Example 8] | 0.45 | 0.76 | 
COC1CC2CCC(C)C(O)(O2)C(=O)C(=O)N2CCCCC2C(=O)OC(C(C)CC2CCC(OC(=O)C(CO)CO)C(OC)C2)CC(=O)C(C)C=C(C)C(O)C(OC)C(=O)C(C)CC(C)C=CC=CC=C1C (centres unmarked) [Example 9, Rapamycin 42-ester with 3-hydroxy-2-hydroxymethylpropionic acid] | 0.57 | 0.84 | 
CO[C@H]1C[C@@H]2CC[C@@H](C)[C@@](O)(O2)C(=O)C(=O)N2CCCC[C@H]2C(=O)O[C@H]([C@H](C)C[C@@H]2CC[C@@H](OC(=O)C3(C)COC(C)(C)OC3)[C@H](OC)C2)CC(=O)[C@H](C)/C=C(\C)[C@@H](O)[C@@H](OC)C(=O)[C@H](C)C[C@H](C)/C=C/C=C/C=C/1C [Example 10] | 0.41 | 4.9 | Skin graft survival time [3]: 11.0 ± 1.3 days
CO[C@H]1CC2CC[C@@H](C)[C@@](O)(O2)C(=O)C(=O)N2CCCC[C@H]2C(=O)O[C@H]([C@H](C)C[C@@H]2CC[C@@H](OC(=O)C(C)(CO)CO)[C@H](OC)C2)CC(=O)[C@H](C)/C=C(\C)[C@@H](O)[C@@H](OC)C(=O)[C@H](C)C[C@H](C)/C=C/C=C/C=C/1C [Example 11, Rapamycin 42-ester with 2,2-bis-(hydroxymethyl)propionic acid] |  |  | Percent change in adjuvant arthritis versus control [2]: < 88%; Skin graft survival time ([3]; 4 mg/kg): 11.4 ± 1.5 days and 12.0 ± 1.1 days
COC1CC2CCC(C)C(O)(O2)C(=O)C(=O)N2CCCCC2C(=O)OC(C(C)CC2CCC(OC(=O)C3(C)COC4(CCCCC4)OC3)C(OC)C2)CC(=O)C(C)C=C(C)C(O)C(OC)C(=O)C(C)CC(C)C=CC=CC=C1C (centres unmarked) [Example 13, Rapamycin 42-ester with 3-methyl-1,5-dioxa-spiro[5.5]undecane 3-carboxylic acid] | 2.00 | 0.6 | 
COC1CC2CCC(C)C(O)(O2)C(=O)C(=O)N2CCCCC2C(=O)OC(C(C)CC2CCC(OC(=O)C3(C)COC4(CCCCC4)OC3)C(OC)C2)CC(=O)C(C)C=C(C)C(OC(=O)C2(C)COC3(CCCCC3)OC2)C(OC)C(=O)C(C)CC(C)C=CC=CC=C1C (centres unmarked) [Example 14, Rapamycin 31.42-diester with 3-methyl-1.5-dioxa-spiro[5.5]undecane 3-carboxylic acid] |  |  | percent inhibition of T-cell proliferation ([1]; at 0.1 μM): 43%
CO[C@H]1C[C@@H]2CC[C@@H](C)[C@@](O)(O2)C(=O)C(=O)N2CCCC[C@H]2C(=O)O[C@H]([C@H](C)C[C@@H]2CC[C@@H](O)[C@H](OC)C2)CC(=O)[C@H](C)/C=C(\C)[C@@H](O)[C@@H](OC)C(=O)[C@H](C)C[C@H](C)/C=C/C=C/C=C/1C [rapamycin, Rapamycin] |  |  | IC50 ([1]; Mus musculus, Thymocyte, 72 h): 0.6 to 1.5 nM
Rapamycin 42-ester with 2,2-dimethyl-5-(2-trimethylsilanylethoxymethyl)[1,3]dioxane-5-carboxylic acid [Example 12] | 0.05 | 7.2 | 
Rapamycin 42-ester with 2,3-dihydroxypropionic acid [Example 7] | 0.40 | 1.4 | 
